Series [1] deals with human PDE10A2 (Homo sapiens (Human), UniProt Q9Y233). Briefly: PDE10 fluorescence polarization (IMAP FP) inhibition assay. In kind it is biochemical. As for the experimental part:
The activity of the compounds in accordance with the present invention as PDE10 inhibitors may be readily determined without undue experimentation using a fluorescence polarization (FP) methodology that is well known in the art (Huang, W., et al., J. Biomol Screen, 2002, 7: 215).
In a typical experiment the PDE10 inhibitory activity of the compounds of the present invention was determined in accordance with the following experimental method. PDE10A2 was amplified from human fetal brain cDNA (Clontech, Mountain View, Calif.) using a forward primer corresponding to nucleotides 56-77 of human PDE10A2 (Accession No. AF127480, Genbank Identifier 4894716), containing a Kozak consensus sequence, and a reverse primer corresponding to nucleotides 2406-2413 of human PDE10A2 (Accession No. AF127480, Genbank Identifier 4894716). Amplification with Easy-A polymerase (Stratagene, La Jolla, Calif.) was 95° C. for 2 minutes followed by thirty three cycles of 95° C. for 40 seconds, 55° C. for 30 seconds, and 72° C. for 2 minutes 48 seconds. Final extension was 72° C. for 7 minutes. The PCR product was TA cloned into pcDNA3.2-TOPO (Invitrogen, Carlsbad, Calif.) according to standard protocol. AD293 cells with 70-80% confluency were transiently transfected with human PDE10A2/pcDNA3.2-TOPO using Lipofectamine 2000 according to manufacturer specifications (Invitrogen, Carlsbad, Calif.). Cells were harvested 48 hours post-transfection and lysed by sonication (setting 3, 10×5 sec pulses) in a buffer containing 20 mM HEPES, 1 mM EDTA and protease inhibitor cocktail (Roche). Lysate was collected by centrifugation at 75,000×g for 20 minutes. Supernatant containing the cytoplasmic fraction was used for evaluation of PDE10A2 activity. The fluorescence polarization assay for cyclic nucleotide phosphodiesterases was performed using an IMAP® FP kit supplied by Molecular Devices, Sunnyvale, Calif. (product # R8139). IMAP® technology has been applied previously to phosphodiesterase assays (Huang, W., et al., J. Biomol Screen, 2002, 7: 215). Assays were performed at room temperature in 384-well microtiter plates with an incubation volume of 20.2 μL. Solutions of test compounds were prepared in DMSO and serially diluted with DMSO to yield 8 μL of each of 10 solutions differing by 3-fold in concentration, at 32 serial dilutions per plate. […] 0% of inhibition is determined by using DMSO (1% final concentrations).
A Labcyte Echo 555 (Labcyte, Sunnyvale, Calif.) is used to dispense 200 nL from each well of the titration plate to the 384 well assay plate. A solution of enzyme (1/1600 dilution from aliquots; sufficient to produce 20% substrate conversion) and a separate solution of FAM-labeled cAMP PDE from Molecular Devices (product # R7506), at a final concentration of 50 nM are made in the assay buffer (10 mM Tris HCl, pH 7.2, 10 mM MgCl2, 0.05% NaN3 0.01% Tween-20, and 1 mM DTT). The enzyme and the substrate are then added to the assay plates in two consecutive additions of 10 μL, and then shaken to mix. The reaction is allowed to proceed at room temperature for 30 minutes. […] The enzymatic reaction is stopped by addition of 60 μL of the binding solution to each well of the assay plates and the plates are sealed and shaken for 10 seconds. The plate was incubated at room temperature for at least one hour prior to determining the fluorescence polarization (FP). The parallel and perpendicular fluorescence of each well of the plate was measured using a Perkin Elmer EnVision™ plate reader (Waltham, Mass.).
Fluorescence polarization (mP) was calculated from the parallel (S) and perpendicular (P) fluorescence of each sample well and the analogous values for the median control well, containing only substrate (So and Po), using the following equation: Polarization (mP)=1000*(S/So−P/Po)/(S/So+P/Po).
Dose-inhibition profiles for each compound were characterized by fitting the mP data to a four-parameter equation given below.

In series [2] the target is CYP3A4 (Homo sapiens (Human), UniProt P08684). The series can be described thus: time-dependent inhibition (TDI) of CYP3A4. In kind it is in vitro ADME. The note with it: for time-dependent inhibition (TDI) of the CYP3A4 enzyme: result in words.
Series [3] has as its target CYP2C9 (Homo sapiens (Human), UniProt P11712). The series can be described thus: reversible inhibition of CYP2C9. The class given is in vitro ADME.
Setting [4] is: comparison table with Compounds A, B, C, read-out: PDE10 Ki.

This is an account of results in patent US9428492B2, “Secondary alcohol substituted triazoles as PDE10 inhibitors” (Merck Sharp & Dohme Corp., priority 2012, dated 2016).

Like-named read-outs stand apart in the source and are kept apart here.

Sequence of CYP3A4 (P08684 whole entry): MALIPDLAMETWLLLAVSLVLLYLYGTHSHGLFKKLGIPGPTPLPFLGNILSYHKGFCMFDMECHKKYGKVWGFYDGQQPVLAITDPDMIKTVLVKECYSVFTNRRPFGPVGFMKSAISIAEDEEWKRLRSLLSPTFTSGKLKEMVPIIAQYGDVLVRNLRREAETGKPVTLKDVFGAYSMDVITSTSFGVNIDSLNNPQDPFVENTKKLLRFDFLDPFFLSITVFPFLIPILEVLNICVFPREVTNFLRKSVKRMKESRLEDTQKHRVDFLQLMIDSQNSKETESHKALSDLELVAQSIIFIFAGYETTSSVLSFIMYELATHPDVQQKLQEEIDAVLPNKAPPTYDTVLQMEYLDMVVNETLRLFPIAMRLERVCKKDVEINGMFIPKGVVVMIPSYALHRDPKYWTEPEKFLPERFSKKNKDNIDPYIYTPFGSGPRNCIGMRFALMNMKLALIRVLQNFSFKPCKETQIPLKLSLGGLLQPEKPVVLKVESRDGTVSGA
Sequence of CYP2C9 (P11712 whole entry): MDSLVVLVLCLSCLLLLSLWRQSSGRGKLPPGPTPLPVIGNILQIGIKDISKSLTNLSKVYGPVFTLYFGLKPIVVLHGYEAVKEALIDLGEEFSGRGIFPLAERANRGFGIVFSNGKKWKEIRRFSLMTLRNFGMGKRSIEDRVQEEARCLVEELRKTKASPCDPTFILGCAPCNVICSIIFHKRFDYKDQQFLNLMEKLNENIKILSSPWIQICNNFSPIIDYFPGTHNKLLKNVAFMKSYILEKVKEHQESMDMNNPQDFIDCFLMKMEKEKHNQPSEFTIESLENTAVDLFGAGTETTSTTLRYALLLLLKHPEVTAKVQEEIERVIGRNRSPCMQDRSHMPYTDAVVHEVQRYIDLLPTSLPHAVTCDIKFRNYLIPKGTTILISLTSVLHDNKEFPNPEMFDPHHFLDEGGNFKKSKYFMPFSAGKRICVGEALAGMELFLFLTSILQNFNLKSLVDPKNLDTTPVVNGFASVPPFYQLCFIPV
Sequence of human PDE10A2 (Q9Y233 267-1055): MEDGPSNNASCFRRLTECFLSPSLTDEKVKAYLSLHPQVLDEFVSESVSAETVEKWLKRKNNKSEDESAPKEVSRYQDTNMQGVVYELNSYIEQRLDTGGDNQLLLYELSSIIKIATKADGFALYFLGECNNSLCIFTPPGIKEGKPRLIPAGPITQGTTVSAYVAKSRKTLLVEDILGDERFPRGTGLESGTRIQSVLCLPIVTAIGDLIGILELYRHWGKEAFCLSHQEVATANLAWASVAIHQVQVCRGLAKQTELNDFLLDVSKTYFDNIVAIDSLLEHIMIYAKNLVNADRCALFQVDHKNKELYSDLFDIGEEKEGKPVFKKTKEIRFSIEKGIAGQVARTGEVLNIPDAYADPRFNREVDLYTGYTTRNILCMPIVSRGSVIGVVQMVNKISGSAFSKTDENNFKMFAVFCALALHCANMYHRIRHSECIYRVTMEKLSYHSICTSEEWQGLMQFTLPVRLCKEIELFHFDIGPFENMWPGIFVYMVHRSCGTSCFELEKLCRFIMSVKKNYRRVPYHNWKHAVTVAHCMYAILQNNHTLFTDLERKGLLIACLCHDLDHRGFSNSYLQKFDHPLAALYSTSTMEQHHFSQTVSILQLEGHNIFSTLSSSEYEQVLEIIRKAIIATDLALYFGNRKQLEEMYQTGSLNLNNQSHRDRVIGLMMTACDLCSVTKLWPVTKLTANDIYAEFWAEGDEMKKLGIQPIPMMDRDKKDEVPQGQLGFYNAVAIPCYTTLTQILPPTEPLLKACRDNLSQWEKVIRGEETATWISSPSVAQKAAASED

Turning to `Cc1nc([C@@H]2C[C@H]2c2nc3ccccc3n2C)cc(-n2nc(C)nc2[C@@H](C)O)n1` [Example 14, (R)-1-(3-methyl-1-(2-methyl-6-((1R,2R)-2-(1-methyl-1H-benzo[d]imidazol-2-yl)cyclopropyl)pyrimidin-4-yl)-1H-1,2,4-triazol-5-yl)ethanol], the Ki in series [1] (setting [4]) and in series [1] (read-out: PDE10a Ki) was 1.1 nM throughout. For the same molecule, the “TDI CYP3A4 shift ratio” value in series [2] is 1. The “time-dependent inhibition (TDI) of the CYP3A4 enzyme” value (“time-dependent inhibition (TDI)” below) in series [2] is “do not exhibit TDI of CYP3A4”. In series [3], this molecule returned an IC50 above 50000 nM.

With `CCC(O)c1nc(C)nn1-c1cc([C@@H]2C[C@H]2c2nc3ccccc3n2C)nc(C)n1` (single isomer, unassigned) [Example 19a], the “time-dependent inhibition (TDI)” value in series [2] is recorded as “do not exhibit TDI of CYP3A4”. The molecule further gave an IC50 in series [3] above 50000 nM.

Turning to `CCC(O)c1nc(C)nn1-c1cc(N2CC(c3nc4ccccc4n3C)C2)nc(C)n1` (single isomer, unassigned) [Example 4b, 1-(3-methyl-1-(2-methyl-6-(3-(1-methyl-1H-benzo[d]imidazol-2-yl)azetidin-1-yl)pyrimidin-4-yl)-1H-1,2,4-triazol-5-yl)propan-1-ol], the inhibition constant Ki was determined as 0.51 nM in series [1] (setting [4]) and 0.41 nM in series [1] (read-out: PDE10a Ki). For the same molecule, in series [2], the “TDI CYP3A4 shift ratio” value turned out to be 1. Moreover, the “time-dependent inhibition (TDI)” value in series [2] is given as “do not exhibit TDI of CYP3A4”. In series [3], this molecule displayed an IC50 above 50000 nM.

With `Cc1nc([C@@H]2C[C@H]2c2nc3ccccc3n2C)cc(-n2nc(C)nc2C(C)(C)O)n1` [Compound A, 2-(3-methyl-1-(2-methyl-6-((1R,2R)-2-(1-methyl-1H-benzo[d]imidazol-2-yl)cyclopropyl)pyrimidin-4-yl)-1H-1,2,4-triazol-5-yl)propan-2-ol, reference compound], the Ki in series [1] (setting [4]) was 4.2 nM. In addition, the “TDI CYP3A4 shift ratio” value in series [2] was 1. The concentration for half-maximal inhibition (IC50) in series [3] was above 50000 nM.

For the molecule `CO[C@@H](C)c1nc(C)nn1-c1cc([C@@H]2C[C@H]2c2nc3ccccc3n2C)nc(C)n1` [Compound B, 2-((1R,2R)-2-(6-(5-((S)-1-methoxyethyl)-3-methyl-1H-1,2,4-triazol-1-yl)-2-methylpyrimidin-4-yl)cyclopropyl)-1-methyl-1H-benzo[d]imidazole, reference compound], in series [1] (setting [4]), the inhibition constant Ki is 2.1 nM. For the same molecule, in series [2], the “TDI CYP3A4 shift ratio” value was 1. For the same molecule, inhibition in series [3] was half-maximal at 10500 nM (IC50).

Take `Cc1nc(N2CC(c3nc4ccccc4n3C)C2)cc(-n2nc(C)nc2[C@H](C)O)n1` [Example 1, (S)-1-(3-methyl-1-(2-methyl-6-(3-(1-methyl-1H-benzo[d]imidazol-2-yl)azetidin-1-yl)pyrimidin-4-yl)-1H-1,2,4-triazol-5-yl)ethanol]: in series [1] (read-out: PDE10a Ki), the inhibitory constant (Ki) was determined as 0.23 nM. For the same molecule, in series [2], the “TDI CYP3A4 shift ratio” value is listed as 1 and the “time-dependent inhibition (TDI)” value is reported as “do not exhibit TDI of CYP3A4”. Further, the IC50 in series [3] was above 50000 nM.

Regarding `COCc1nc(C)nn1-c1cc([C@@H]2C[C@H]2c2nc3ccccc3n2C)nc(C)n1` [Compound C, 2-((1R,2R)-2-(6-(5-(methoxymethyl)-3-methyl-1H-1,2,4-triazol-1-yl)-2-methylpyrimidin-4-yl)cyclopropyl)-1-methyl-1H-benzo[d]imidazole, reference compound], the inhibitory constant (Ki) in series [1] (setting [4]) was found to be 0.49 nM. Also, in series [2], the “TDI CYP3A4 shift ratio” value is recorded as above 1.98 and the “time-dependent inhibition (TDI)” value is given as “exhibited time-dependent inhibition (TDI) of the CYP3A4 enzyme”. Besides, the IC50 in series [3] is 46000 nM.

`Cc1nc(N2CC(c3nc4ccccc4n3C)C2)cc(-n2nc(C)nc2C(O)C(F)F)n1` (single isomer, unassigned) [Example 11a, 2,2-difluoro-1-(3-methyl-1-(2-methyl-6-(3-(1-methyl-1H-benzo[d]imidazol-2-yl)azetidin-1-yl)pyrimidin-4-yl)-1H-1,2,4-triazol-5-yl)ethanol]: the Ki in series [1] (read-out: PDE10a Ki) is 0.65 nM.

Regarding `Cc1nc(C(C)O)n(-c2cc(N3CC(c4nc5ccccc5n4C)C3)nc(C3CC3)n2)n1` (single isomer, unassigned) [Example 10b, 1-(1-(2-cyclopropyl-6-(3-(1-methyl-1H-benzo[d]imidazol-2-yl)azetidin-1-yl)pyrimidin-4-yl)-3-methyl-1H-1,2,4-triazol-5-yl)ethanol], the inhibition constant (Ki) in series [1] (read-out: PDE10a Ki) turned out to be 0.39 nM.

In the case of `Cc1nc(C2C[C@H]2c2nc3ccccc3n2C)cc(-n2nc(C)nc2C(O)C(F)(F)F)n1` (single isomer, unassigned) [Example 20b], the Ki in series [1] (read-out: PDE10a Ki) was 0.92 nM.

Turning to `Cc1nc(C(C)O)n(-c2cc(N3CC(c4nc5ccccc5n4C)C3)nc(C(F)(F)F)n2)n1` (single isomer, unassigned) [Example 8a, 1-(3-methyl-1-(6-(3-(1-methyl-1H-benzo[d]imidazol-2-yl)azetidin-1-yl)-2-(trifluoromethyl)pyrimidin-4-yl)-1H-1,2,4-triazol-5-yl)ethanol], the Ki in series [1] (read-out: PDE10a Ki) came to 0.53 nM.

For `COc1nc(N2CC(c3nc4ccccc4n3C)C2)cc(-n2nc(C)nc2C(C)O)n1` (stereo not drawn) [Example 9, 1-(1-(2-methoxy-6-(3-(1-methyl-1H-benzo[d]imidazol-2-yl)azetidin-1-yl)pyrimidin-4-yl)-3-methyl-1H-1,2,4-triazol-5-yl)ethanol], the inhibition constant (Ki) in series [1] (read-out: PDE10a Ki) is 1.2 nM.

As for `Cc1nc(N2CC(c3nc4ccccc4n3C)C2)cc(-n2nc(C)nc2C(O)CC(F)(F)F)n1` (single isomer, unassigned) [Example 7b, 3,3,3-trifluoro-1-(3-methyl-1-(2-methyl-6-(3-(1-methyl-1H-benzo[d]imidazol-2-yl)azetidin-1-yl)pyrimidin-4-yl)-1H-1,2,4-triazol-5-yl)propan-1-ol], in series [1] (read-out: PDE10a Ki), the Ki was determined as 2.5 nM.

As for `Cc1nc(N2CC(c3nc4ccccc4n3C)C2)cc(-n2nc(C)nc2C(O)C(F)(F)F)n1` (racemic) [Example 3, 2,2,2-trifluoro-1-(3-methyl-1-(2-methyl-6-(3-(1-methyl-1H-benzo[d]imidazol-2-yl)azetidin-1-yl)pyrimidin-4-yl)-1H-1,2,4-triazol-5-yl)ethanol], the Ki in series [1] (read-out: PDE10a Ki) was 0.11 nM.

Regarding `Cc1nc(N2CC(c3nc4ccccc4n3C)C2)cc(-n2nc(C)nc2C(O)C(C)C)n1` (stereo not drawn) [Example 5, 2-methyl-1-(3-methyl-1-(2-methyl-6-(3-(1-methyl-1H-benzo[d]imidazol-2-yl)azetidin-1-yl)pyrimidin-4-yl)-1H-1,2,4-triazol-5-yl)propan-1-ol], the Ki in series [1] (read-out: PDE10a Ki) came to 0.41 nM.

Take `Cc1nc([C@@H]2C[C@H]2c2nc3ccccc3n2C)cc(-n2nc(C)nc2C(O)C(C)C)n1` (stereo partly drawn) [Example 21, 2-methyl-1-(3-methyl-1-(2-methyl-6-((1R,2R)-2-(1-methyl-1H-benzo[d]imidazol-2-yl)cyclopropyl)pyrimidin-4-yl)-1H-1,2,4-triazol-5-yl)propan-1-ol]: the inhibition constant (Ki) in series [1] (read-out: PDE10a Ki) is 0.47 nM.

For the molecule `Cc1nc(N2CC(c3nc4ccccc4n3C)C2)cc(-n2nc(C)nc2C(O)CF)n1` (stereo not drawn) [Example 12, 2-fluoro-1-(3-methyl-1-(2-methyl-6-(3-(1-methyl-1H-benzo[d]imidazol-2-yl)azetidin-1-yl)pyrimidin-4-yl)-1H-1,2,4-triazol-5-yl)ethanol], the inhibition constant Ki in series [1] (read-out: PDE10a Ki) was 0.34 nM.
